# pIC50: −log10 of the molar value.
# System: Type III-dependent secretion of ExoU by P. aeruginosa PA103
# Experiment: Tertiary assay: Type III-dependent secretion of ExoU by P. aeruginosa PA103
# Assay type: cell-based
# Conditions: Pseudomonas aeruginosa, ExoU secreted into extracellular medium
# From the text: Tertiary assay: inhibition of Type III protein secretion of effectors from a Pseudomonas aeruginosa system. Type III protein secretion is used by P. aeruginosa to secrete several essential virulence determinants. One effector of the type III protein secretion system of P. aeruginosa PA103 is the virulence determinants ExoU.
# The amount of Type III-dependent secretion of ExoU by P. aeruginosa PA103 can be determined in a cell-based assay by quantification of the 73.9 kDa ExoU protein secreted into the extracellular medium. Such quantitation can be achieved by growing strain PA103 in a deferrated medium in the presence of nitrilotriacetic acid (an inducer of Type III protein secretion in P. aeruginosa) and either in the presence or absence of putative inhibitors. After a prolonged growth period, the cells are sedimented and the supernatants concentrated by ammonium sulfate precipitation. The proteins in the resuspended pellets are separated by electrophoresis on SDS-polyacrylamide gels. After staining gels with Colloidal Blue™, the 73.9 kDa ExoU band is quantitated by scanning through an imager. The effects of inhibitors on the intensity of the ExoU band may be measured relative to that of untreated controls.
row,SMILES,pIC50
1,"O=C(N[C@@H](CSCc1ccccc1)C(=O)O)/C(=C\c1ccc(OCc2ccccc2)cc1)NC(=O)c1ccc(C(F)(F)F)cc1 [Compound 1, (R)-2-[3-(4-Benzyloxyphenyl)-2-(4-trifluoromethylbenzoylamino)acryloylamino]-3-benzylsulfanylpropionic acid]",4.94
2,"O=C(N[C@H](CSCc1ccccc1)C(=O)O)/C(=C\c1ccc(-c2ccccc2)cc1)NC(=O)c1ccc(C(F)(F)F)cc1 [Compound 6, (S)-3-Benzylsulfanyl-2-[3-biphenyl-4-yl-2-(4-trifluoromethylbenzoylamino)-acryloylamino]propionic acid]",4.33
3,"O=C(N[C@@H](CCSCc1ccccc1)C(=O)O)/C(=C\c1ccc(-c2ccccc2)cc1)NC(=O)c1ccc(C(F)(F)F)cc1 [Compound 7, (S)-4-Benzylsulfanyl-2-[3-biphenyl-4-yl-2-(4-trifluoromethylbenzoylamino)-acryloylamino]butyric acid]",4.51
4,"O=C(N[C@@H](CSCc1ccccc1)C(=O)O)/C(=C\c1ccc(Oc2ccccc2)cc1)NC(=O)c1ccc(C(F)(F)F)cc1 [Compound 17, (R)-3-Benzylsulfanyl-2-[3-(4-phenoxyphenyl)-2-(4-trifluoromethylbenzoylamino)-acryloylamino]propionic acid]",4.31
5,"O=C(N[C@@H](CSCc1ccccc1)C(=O)O)/C(=C\c1cccc(OCc2ccccc2)c1)NC(=O)c1ccc(C(F)(F)F)cc1 [Compound 18, (R)-2-[3-(3-Benzyloxyphenyl)-2-(4-trifluoromethylbenzoylamino)acryloylamino]-3-benzylsulfanylpropionic acid]",4.24
6,"O=C(N[C@@H](CSCc1ccccc1)C(=O)O)/C(=C\c1ccc(Oc2ccccc2)cc1)NC(=O)c1ccc(Br)cc1 [Compound 20, (R)-3-Benzylsulfanyl-2-[2-(4-bromobenzoylamino)-3-(4-phenoxyphenyl)-acryloylamino]propionic acid]",4.43
7,"O=C(N[C@@H](CSCc1ccccc1)C(=O)O)/C(=C\c1cccc(Oc2ccccc2)c1)NC(=O)c1ccc(I)cc1 [Compound 21, (R)-3-Benzylsulfanyl-2-[2-(4-iodobenzoylamino)-3-(3-phenoxyphenyl)-acryloylamino]propionic acid]",4.16
8,"O=C(N[C@@H](CSCc1ccccc1)C(=O)O)/C(=C\c1ccc(OC(F)(F)F)cc1)NC(=O)c1ccc(I)cc1 [Compound 22, (R)-3-Benzylsulfanyl-2-[2-(4-iodobenzoylamino)-3-(4-trifluoromethoxyphenyl)-acryloylamino]propionic acid]",4.33
9,"O=C(N[C@@H](COCc1ccccc1)C(=O)O)/C(=C\c1ccc(-c2ccccc2)cc1)NC(=O)c1ccc(C(F)(F)F)cc1 [Compound 23, (S)-3-Benzyloxy-2-[3-biphenyl-4-yl-2-(4-trifluoromethylbenzoylamino)-acryloylamino]propionic acid]",4.54
10,"O=C(N[C@@H](COCc1ccccc1)C(=O)O)/C(=C\c1ccc(Cl)c(Cl)c1)NC(=O)c1ccc(-c2ccccc2)cc1 [Compound 26, (S)-3-Benzyloxy-2-[2-[(biphenyl-4-carbonyl)amino]-3-(3,4-dichlorophenyl)-acryloylamino]propionic acid]",4.62
11,"O=C(N[C@H](COCc1ccccc1)C(=O)O)/C(=C\c1ccc(Cl)c(Cl)c1)NC(=O)c1ccc(OC(F)(F)F)cc1 [Compound 30, (R)-3-Benzyloxy-2-[3-(3,4-dichlorophenyl)-2-(4-trifluoromethoxybenzoylamino)-acryloylamino]propionic acid]",4.27
12,"CC(C)c1ccc(/C=C(/NC(=O)c2ccc(C(F)(F)F)cc2)C(=O)N[C@@H](CSCc2ccccc2)C(=O)O)cc1 [Compound 34, (R)-3-Benzylsulfanyl-2-[3-(4-isopropylphenyl)-2-(4-trifluoromethyl-benzoylamino)acryloylamino]propionic acid]",4.30
13,"O=C(N[C@@H](CSCc1ccccc1)C(=O)O)/C(=C\c1ccc2ccccc2c1)NC(=O)c1ccc(C(F)(F)F)cc1 [Compound 35, (R)-3-Benzylsulfanyl-2-[3-naphthalen-2-yl-2-(4-trifluoromethylbenzoylamino)-acryloylamino]propionic acid]",> 4.90
14,"O=C(N[C@@H](Cc1ccc(Cl)cc1)C(=O)O)/C(=C\c1cccc(C(F)(F)F)c1)NC(=O)c1ccc(-c2ccccc2)cc1 [Compound 38, (S)-2-[2-[(Biphenyl-4-carbonyl)amino]-3-(3-trifluoromethylphenyl)acryloylamino]-3-(4-chlorophenyl)propionic acid]",4.76
15,"O=C(N[C@H](Cc1ccc(Cl)cc1)C(=O)O)/C(=C\c1cccc(C(F)(F)F)c1)NC(=O)c1ccc(-c2ccccc2)cc1 [Compound 39, (R)-2-[2-[(Biphenyl-4-carbonyl)amino]-3-(3-trifluoromethylphenyl)acryloylamino]-3-(4-chlorophenyl)propionic acid]",4.77
16,"O=C(N[C@@H](CSCc1ccccc1)C(=O)O)/C(=C\c1cccc(Oc2ccc(Cl)cc2)c1)NC(=O)c1ccc(C(F)(F)F)cc1 [Compound 40, (R)-3-Benzylsulfanyl-2-[3-[3-(4-chlorophenoxy)phenyl]-2-(4-trifluoromethyl-benzoylamino)acryloylamino]propionic acid]",4.88
17,"O=C(N[C@@H](CSCc1ccccc1)C(=O)O)/C(=C\c1ccc(Oc2ccccc2)cc1)NC(=O)c1ccc(Cl)cc1 [Compound 44, (R)-3-Benzylsulfanyl-2-[2-(4-chlorobenzoylamino)-3-(4-phenoxyphenyl)-acryloylamino]propionic acid]",4.58
18,"O=C(N[C@@H](CSCc1ccccc1)C(=O)O)/C(=C\c1cccc(Br)c1)NC(=O)c1ccc(Oc2ccccc2)cc1 [Compound 48, (R)-3-Benzylsulfanyl-2-[3-(3-bromophenyl)-2-(4-phenoxybenzoylamino)-acryloylamino]propionic acid]",4.61
19,"O=C(N[C@@H](COCc1ccccc1)C(=O)O)/C(=C\c1ccc(Cl)c(Cl)c1)NC(=O)c1ccc(Oc2ccccc2)cc1 [Compound 49, (S)-3-Benzyloxy-2-[3-(3,4-dichlorophenyl)-2-(4-phenoxybenzoylamino)-acryloylamino]propionic acid]",4.12
20,"CN(C(=O)/C(=C\c1cccc(C(F)(F)F)c1)NC(=O)c1ccc(-c2ccccc2)cc1)C(COCc1ccccc1)C(=O)O (stereo not shown) [Compound 53, 3-Benzyloxy-2-{[2-[(biphenyl-4-carbonyl)amino]-3-(3-trifluoromethylphenyl)-acryloyl]methylamino}propionic acid]",4.34
21,"O=C(NC(Cc1ccc(F)cc1)C(=O)O)/C(=C\c1ccc(-c2ccccc2)cc1)NC(=O)c1ccc(C(F)(F)F)cc1 (stereo not shown) [Compound 54, 2-[3-Biphenyl-4-yl-2-(4-trifluoromethylbenzoylamino)acryloylamino]-3-(4-fluoro-phenyl)propionic acid]",4.72
22,"O=C(NC(Cc1ccc(Cl)cc1)C(=O)O)/C(=C\c1ccc(-c2ccccc2)cc1)NC(=O)c1ccc(C(F)(F)F)cc1 (stereo not shown) [Compound 55, 2-[3-Biphenyl-4-yl-2-(4-trifluoromethylbenzoylamino)acryloylamino]-3-(4-chloro-phenyl)propionic acid]",4.89
23,"O=C(N[C@H](COCc1ccccc1)C(=O)O)/C(=C\c1ccc(Cl)c(Cl)c1)NC(=O)c1ccc(-c2ccccc2)cc1 [Compound 56, (R)-3-Benzyloxy-2-[2-[(biphenyl-4-carbonyl)amino]-3-(3,4-dichlorophenyl)-acryloylamino]propionic acid]",4.69
24,"O=C(N[C@@H](CSCc1ccccc1)C(=O)O)/C(=C\c1ccc(Oc2ccc(F)cc2)cc1)NC(=O)c1ccc(C(F)(F)F)cc1 [Compound 57, (R)-3-Benzylsulfanyl-2-[3-[4-(4-fluorophenoxy)phenyl]-2-(4-trifluoromethyl-benzoylamino)acryloylamino]propionic acid]",4.46
25,"O=C(N[C@@H](CSCc1ccccc1)C(=O)O)/C(=C\c1ccc(Oc2ccc(Cl)cc2)cc1)NC(=O)c1ccc(C(F)(F)F)cc1 [Compound 58, (R)-3-Benzylsulfanyl-2-[3-[4-(4-chlorophenoxy)phenyl]-2-(4-trifluoromethyl-benzoylamino)acryloylamino]propionic acid]",4.31
26,"O=C(O)C[C@@H](CNC(=O)/C(=C\c1cccc(C(F)(F)F)c1)NC(=O)c1ccc(-c2ccccc2)cc1)c1ccc(Cl)cc1 [Compound 62, (R)-4-[2-[(Biphenyl-4-carbonyl)amino]-3-(3-trifluoromethylphenyl)acryloylamino]-3-(4-chlorophenyl)butyric acid]",4.06
27,"O=C(N[C@@H](CSCc1ccccc1)C(=O)O)/C(=C\c1ccc(Cl)c(Cl)c1)NC(=O)C1CCN(c2nccc(C(F)(F)F)n2)CC1 [Compound 74, (R)-3-Benzylsulfanyl-2-(3-(3,4-dichlorophenyl)-2-{[1-(4-trifluoromethylpyrimidin-2-yl)piperidine-4-carbonyl]amino}acryloylamino)propionic acid]",4.47
28,"O=C(N[C@H](COCc1ccccc1)C(=O)O)/C(=C\c1ccc(I)cc1)NC(=O)C1CCN(c2nccc(C(F)(F)F)n2)CC1 [Compound 75, (R)-3-Benzyloxy-2-(3-(4-iodophenyl)-2-{[1-(4-trifluoromethylpyrimidin-2-yl)-piperidine-4-carbonyl]amino}acryloylamino)propionic acid]",4.18
